# Assay results from US6784201B2, “Benzothiepines having activity as inhibitors of ileal bile acid transport and taurocholate uptake” (G.D. Searle & Company, priority 1994, dated 2004).
# Target: T1, human IBAT (Homo sapiens, UniProt Q12908)
# T1 construct: expressed in transfected cells; host or cells: Baby hamster kidney (BHK) cells, clone H14
# T1 sequence (Q12908 1-348): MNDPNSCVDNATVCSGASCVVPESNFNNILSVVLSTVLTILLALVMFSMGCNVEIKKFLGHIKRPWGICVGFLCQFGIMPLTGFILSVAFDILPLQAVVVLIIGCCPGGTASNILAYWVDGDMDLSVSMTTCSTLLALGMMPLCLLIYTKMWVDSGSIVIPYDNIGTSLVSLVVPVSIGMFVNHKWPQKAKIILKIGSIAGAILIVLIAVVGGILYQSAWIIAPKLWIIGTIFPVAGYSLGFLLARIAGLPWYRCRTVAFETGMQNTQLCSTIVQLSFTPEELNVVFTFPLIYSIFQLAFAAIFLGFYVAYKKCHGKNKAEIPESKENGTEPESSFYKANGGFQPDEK
# Experiment: In vitro assay of IBAT-mediated uptake of [14C]-taurocholate (TC) in H14 cells
# Type: cell-based
# Conditions: 6 μM
# Method: In Vitro Assay of Compounds that Inhibit IBAT-Mediated Uptake of [^14C]-Taurocholate (TC) in H14 Cells
# Baby hamster kidney cells (BHK) transfected with the cDNA of human IBAT (H14 cells) are seeded at 60,000 cells/well in 96 well Top-Count tissue culture plates for assays run within in 24 hours of seeding, 30,000 cells/well for assays run within 48 hours, and 10,000 cells/well for assays run within 72 hours.
# On the day of assay, the cell monolayer is gently washed once with 100 μl assay buffer (Dulbecco's Modified Eagle's medium with 4.5 g/L glucose+0.2% (w/v) fatty acid free bovine serum albumin-(FAF)BSA). To each well 50 μl of a two-fold concentrate of test compound in assay buffer is added along with 50 μl of 6 μM [^14C]-taurocholate in assay buffer (final concentration of 3 μM [^14C]-taurocholate). The cell culture plates are incubated 2 hours at 37° C. prior to gently washing each well twice with 100 μl 4° C. Dulbecco's phosphate-buffered saline (PBS) containing 0.2% (w/v) (FAF)BSA. The wells are then gently washed once with 100 μl 4° C. PBS without (FAF)BSA. To each 200 μl of liquid scintillation counting fluid is added, the plates are heat sealed and shaken for 30 minutes at room temperature prior to measuring the amount of radioactivity in each well on a Packard Top-Count instrument.
row,SMILES,inhibition at 6 µM [%]
1,"CCCC[C@]1(CC)CS(=O)(=O)c2ccc(N)cc2[C@H](c2ccccc2)[C@@H]1O [Example 63, (3α,4α,5α) 3-Butyl-3ethyl-4-hydroxy-7-amino-5-phenyl-2,3,4,5-tetrahydrobenzothiepine-1,1-dioxide]",90
2,"CCCC[C@]1(CC)CS(=O)(=O)c2ccc(N)cc2[C@@H](c2ccccc2)[C@H]1O [Example 64, (3α,4β,5β) 3-Butyl-3-ethyl-4-hydroxy-7-amino-5-phenyl-2,3,4,5-tetrahydrobenzothiepine-1,1-dioxide]",100

# Same assay, conditions: 50 μM
row,SMILES,inhibition at 50 µM [%]
1,"CCCCCCNc1ccc2c(c1)[C@H](c1ccccc1)[C@H](O)[C@](CC)(CCCC)CS2(=O)=O [Example 40, (3α,4α,5α) 3-Butyl-3-ethyl-7-(n-hexylamino)-4-hydroxy-5-phenyl-2,3,4,5-tetrahydrobenzothiepine-1,1-dioxide]",49
2,"C1=C(c2ccccc2)c2ccccc2SCC12CCCCC2 [Example 57, 5-Phenyl-2,3-dihydrospirobenzothiepine-3,1′-cyclohexane]",51
3,"O=S1(=O)CC2(CCCCC2)C2OC2(c2ccccc2)c2ccccc21 (stereo not shown) [Example 58, 8b-Phenyl-1a,2,3,8b-tetrahydrospiro(benzothiepino[4,5-b]oxirene-2,1′-cyclohexane)-4,4-dioxide]",20

# Same assay, conditions: 100 uM; read-out: In vitro % Inhibition of TC Uptake @ 100 uM
row,SMILES,inhibition at 100 µM [%]
1,"CCC1CS(=O)(=O)c2ccccc2[C@@]2(c3ccccc3)O[C@@H]12 (stereo partly drawn) [Example 13, (1aα,2α,8bα) 2-Ethyl-8b-phenyl-1a,2,3,8b-tetrahydro-benzothiepino-[4,5-b] oxirene-4,4-dioxide]",23
2,"CC[C@@H]1CS(=O)(=O)c2ccccc2[C@H](c2ccccc2)[C@H]1O [Example 14a, (3α,4β,5α)-3-Ethyl-4-hydroxy-5-phenyl-2,3,4,5-tetrahydro-benzothiepine-1,1-dioxide]",13
3,"CC[C@@H]1CS(=O)(=O)c2ccccc2[C@@H](c2ccccc2)[C@H]1O [Example 14b, (3α,4β,5β) 3-Ethyl-4-hydroxy-5-phenyl-2,3,4,5-tetrahydrobenzothiepine-1,1-dioxide]",18
4,"CCCCC1(CC)C=Cc2ccccc2SC1 (stereo not shown) [Example 18, 3-Butyl-3-ethyl-2,3-dihydrobenzothiepine]",6
5,"CCCC[C@]1(CC)CS(=O)(=O)c2ccccc2[C@@H]2O[C@@H]21 [Example 19a, (1aα,2α,8bα) 2-Butyl-2-ethyl-1a,2,3,8b-tetrahydro-benzothiepino[4,5-b]oxirene-4,4-dioxide]",0
6,CCCC[C@]1(CC)CS(=O)(=O)c2ccccc2[C@H]2O[C@H]21 [Example 19b],15
7,"CCCCC1(CC)CS(=O)(=O)c2ccccc2C(Sc2ccccc2)C1O (stereo not shown) [Example 21a, 3-Butyl-3-ethyl-4-hydroxy-5-phenylthio-2,3,4,5-tetrahydro-benzothiepine-1,1-dioxide]",37

# Same assay, conditions: H14 cells, Table 5; read-out: IC50 uM (In vitro Taurocholate Cell Uptake)
row,SMILES,IC50 [µM]
1,"CCCC[C@]1(CC)CS(=O)(=O)c2ccccc2[C@@H](c2ccc(I)cc2)[C@H]1O [Example 42, (3α,4β,5β) 3-Butyl-3-ethyl-4-hydroxy-5-(4-iodophenyl)-2,3,4,5-tetrahydrobenzothiepine-1,1-dioxide]",1.5
2,"CCCC[C@]1(CC)CSc2ccccc2[C@H](c2ccccc2)[C@@H]1O [Example 61, (3α,4α,5α) 3-Butyl-3-ethyl-4-hydroxy-5-phenyl-2,3,4,5-tetrahydrobenzothiepine]",30
3,"CCCC[C@]1(CC)CSc2ccccc2[C@@H](c2ccccc2)[C@H]1O [Example 62, (3α,4β,5β) 3-Butyl-3-ethyl-4-hydroxy-5-phenyl-2,3,4,5-tetrahydrobenzothiepine]",10

# Same assay, conditions: Human TC IC50
row,SMILES,IC50 [µM]
1,CCCC[C@]1(CC)CS(=O)(=O)c2ccc(N(C)C)cc2[C@@H](c2ccccc2)[C@H]1O [Example 104],0.0056
2,CCCCC1(CC)CS(=O)(=O)c2ccc(OCCCCCCOc3ccc4c(c3)C(c3ccccc3)C(O)C(CC)(CCCC)CS4(=O)=O)cc2C(c2ccccc2)C1O (stereo not shown) [Example 139],> 25

# Same assay, conditions: read-out: Human TC IC50
row,SMILES,IC50 [µM]
1,CCCC[C@]1(CC)CS(=O)(=O)c2ccc([N+](C)(C)C)cc2[C@@H](c2ccccc2)[C@H]1O [Example 102],0.083
2,CCCCC1(CC)CS(=O)(=O)c2ccc(NS(C)(=O)=O)cc2C(c2ccccc2)C1O (stereo not shown) [Example 105],0.6
3,CCCCC1(CC)CS(=O)(=O)c2ccc(NC(=O)CBr)cc2C(c2ccccc2)C1O (stereo not shown) [Example 106],0.8
4,CCCCCC(=O)Nc1ccc2c(c1)C(c1ccccc1)C(O)C(CC)(CCCC)CS2(=O)=O (stereo not shown) [Example 108],0.3
5,CCCCC1(CC)CS(=O)(=O)c2ccc(NC(C)=O)cc2C(c2ccccc2)C1O (stereo not shown) [Example 110],0.09
6,CCCC[C@@]1(CC)CS(=O)(=O)c2ccc(N)cc2[C@@H](c2ccc(O)cc2)[C@H]1O [Example 111],2.5
7,CCCC[C@]1(CC)CS(=O)(=O)c2ccc(N)cc2[C@@H](c2ccc(OCCOCCOCCOc3ccc([C@H]4c5cc(N)ccc5S(=O)(=O)C[C@](CC)(CCCC)[C@H]4O)cc3)cc2)[C@H]1O [Example 112],3
8,CCCC[C@]1(CC)CS(=O)(=O)c2ccc(N)cc2[C@@H](c2ccc(O)cc2)[C@H]1O [Example 113],0.1
9,CCCCC1(CC)CS(=O)(=O)c2ccc(N)cc2C(c2ccc(OC)cc2)C1O (stereo not shown) [Example 114],0.19
10,CCCCC1(CC)CS(=O)(=O)c2ccc(NC(=O)OCc3ccccc3)cc2C(c2ccccc2)C1O (stereo not shown) [Example 118],0.4
11,CCCCCCNc1ccc2c(c1)C(c1ccccc1)C(O)C(CC)(CCCC)CS2(=O)=O (stereo not shown) [Example 123],1.67
12,CCCC[C@]1(CC)CS(=O)(=O)c2cc(OCCOCCOCC[N+](C)(C)C)ccc2[C@@H](c2ccccc2)[C@H]1O [Example 125],18
13,CCCCC1(CC)CS(=O)(=O)c2ccc(NC(=O)OCc3ccccc3)cc2C(c2ccc(F)cc2)C1O (stereo not shown) [Example 128],0.7
14,CCCC[C@]1(CC)CS(=O)(=O)c2cc(OCCOCCOCCI)ccc2[C@@H](c2ccccc2)[C@H]1O [Example 134],0.3
15,CCCC[C@]1(CC)CS(=O)(=O)c2cc(O)ccc2[C@@H](c2ccccc2)[C@H]1O [Example 136],0.09
16,CCCCC1(CC)CS(=O)(=O)c2cc(OC(C)=O)ccc2C(c2ccccc2)C1O (stereo not shown) [Example 138],3
17,CCCCC1(CC)CS(=O)(=O)c2ccc(N3CCC3)cc2C(c2ccc(F)cc2)C1O (stereo not shown) [Example 144],0.053

row,SMILES,IC50 [µM]
1,CCCCC1(CC)CS(=O)(=O)c2ccc(O)cc2C(c2cccc(O)c2)C1O (stereo not shown) [Example 266],0.5
2,CCCCC1(CC)CS(=O)(=O)c2ccc(OC)cc2C(c2cccc(O)c2)C1O (stereo not shown) [Example 267],0.073
3,CCCCC1(CC)CS(=O)(=O)c2ccc(OC)cc2C(c2ccc(F)cc2)C1O (stereo not shown) [Example 268],0.029
4,CCCCC1(CC)CS(=O)(=O)c2ccc(OC)cc2C(c2ccc(F)cc2)C1O (stereo not shown) [Example 269],0.08
5,CCCCC1(CC)CS(=O)(=O)c2ccc(O)cc2C(c2ccc(F)cc2)C1O (stereo not shown) [Example 270],0.12
6,CCCCC1(CC)CS(=O)(=O)c2ccc(F)cc2C(c2cccc(OC)c2)C1O (stereo not shown) [Example 276],0.23
7,CCCCC1(CC)CS(=O)(=O)c2ccc(OC)cc2C(c2cccc(F)c2)C1O (stereo not shown) [Example 277],0.04
8,CCCCC1(CC)CS(=O)(=O)c2ccc(OC)cc2C(c2ccccc2F)C1O (stereo not shown) [Example 280],0.18
9,CCCCC1(CC)CS(=O)(=O)c2ccc(SC)cc2C(c2ccc(F)cc2)C1O (stereo not shown) [Example 281],0.019
10,CCCCC1(CC)CS(=O)(=O)c2ccc(N3CCOCC3)cc2C(c2ccc(F)cc2)C1O (stereo not shown) [Example 284],0.08
11,CCC1(CC)CS(=O)(=O)c2ccc(N)cc2[C@@H](c2ccccc2)[C@H]1O [Example 287],4
12,CCCC1(CCC)CS(=O)(=O)c2ccc(N)cc2[C@@H](c2ccccc2)[C@H]1O [Example 289],0.23
13,CCCCC1(CCCC)CS(=O)(=O)c2ccc(N)cc2[C@@H](c2ccccc2)[C@H]1O [Example 290],0.054
14,CCCCC1(CCCC)CS(=O)(=O)c2ccc(N)cc2[C@@H](c2ccc(F)cc2)[C@H]1O [Example 292],0.046
15,CCCCC1(CCCC)CS(=O)(=O)c2ccc(N(C)C)cc2C(c2ccccc2)C1O (stereo not shown) [Example 294],0.013
16,CCCC[C@]1(CC)CS(=O)(=O)c2ccc(N)cc2[C@@H](c2ccc(OCCOCCOCCI)cc2)[C@H]1O [Example 295],1.3
17,CCCCC1(CC)CS(=O)(=O)c2ccc(N)cc2C(c2ccc(OCCOCCOCC[N+](C)(C)C)cc2)C1O (stereo not shown) [Example 296],1.6

# Same assay, conditions: read-out: In vitro % Inhibition of TC Uptake @ 100 uM
row,SMILES,inhibition at 100 µM [%]
1,"CCC1C=C(c2ccccc2)c2ccccc2SC1 (stereo not shown) [Example 12, 3-Ethyl-5-phenyl-2,3-dihydrobenzothiepine]",25
